Experimental data: the supplement of paper PMC10307832

Experiments:
Test in all cases: relative viability (nuclei count vs DMSO), 5 days (fraction); higher = more cells survive
Olaparib + Dasatinib = compound: O=C(c1cc(Cc2n[nH]c(=O)c3ccccc23)ccc1F)N1CCN(C(=O)C2CC2)CC1 [Olaparib] + Cc1nc(Nc2ncc(C(=O)Nc3c(C)cccc3Cl)s2)cc(N2CCN(CCO)CC2)n1 [Dasatinib] (partner 0.075 µM)
Outline: (§1)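 Dosing by pin tool came one day after lung cancer cell lines were seeded in 1536-well plates, using either one drug or a fixed anchor-drug dose plus five library-drug doses (not always all listed) in √10 steps. After 5 days, nuclei were counted on 4× images. Relative viability is treated-well nuclei count divided by vehicle-well nuclei count, and values are medians of duplicate plates.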

Carfilzomib + Foretinib = compound: CC(C)C[C@H](NC(=O)[C@H](CCc1ccccc1)NC(=O)CN1CCOCC1)C(=O)N[C@@H](Cc1ccccc1)C(=O)N[C@@H](CC(C)C)C(=O)[C@@]1(C)CO1 [Carfilzomib] + COc1cc2c(Oc3ccc(NC(=O)C4(C(=O)Nc5ccc(F)cc5)CC4)cc3F)ccnc2cc1OCCCN1CCOCC1 [Foretinib] (partner 0.25 µM)
Outline: as §1

Olaparib + Navitoclax = compound: O=C(c1cc(Cc2n[nH]c(=O)c3ccccc23)ccc1F)N1CCN(C(=O)C2CC2)CC1 [Olaparib] + CC1(C)CCC(c2ccc(Cl)cc2)=C(CN2CCN(c3ccc(C(=O)NS(=O)(=O)c4ccc(N[C@H](CCN5CCOCC5)CSc5ccccc5)c(S(=O)(=O)C(F)(F)F)c4)cc3)CC2)C1 [Navitoclax] (partner 0.5 µM)
Outline: as §1

## NCI-H1793
Olaparib + Dasatinib; first compound 0.08 µM
  relative viability: 0.377
Olaparib + Dasatinib; first compound 0.253 µM
  relative viability: 0.38
Olaparib + Dasatinib; first compound 2.53 µM
  relative viability: 0.353
Olaparib + Dasatinib; first compound 8 µM
  relative viability: 0.303
Carfilzomib + Foretinib; first compound 0.003162 µM
  relative viability: 0.664
Carfilzomib + Foretinib; first compound 0.01 µM
  relative viability: 0.823
Carfilzomib + Foretinib; first compound 0.03162 µM
  relative viability: 0.707
Carfilzomib + Foretinib; first compound 0.1 µM
  relative viability: 0.393
Olaparib + Navitoclax; first compound 0.08 µM
  relative viability: 0.406
Olaparib + Navitoclax; first compound 0.253 µM
  relative viability: 0.421
Olaparib + Navitoclax; first compound 2.53 µM
  relative viability: 0.416
Olaparib + Navitoclax; first compound 8 µM
  relative viability: 0.385
